Results from BindingDB's records for doi:10.1016/S0960-894X(01)80247-X (1994).

Columns and labels:
Endothelin-1 receptor = target: T1, Endothelin-1 receptor (Rattus norvegicus, UniProt P26684); assay: Concentration required to produce 50% inhibition of binding against ET A receptor obtained from rat thoracic aortic membrane
T1 sequence (P26684 whole entry): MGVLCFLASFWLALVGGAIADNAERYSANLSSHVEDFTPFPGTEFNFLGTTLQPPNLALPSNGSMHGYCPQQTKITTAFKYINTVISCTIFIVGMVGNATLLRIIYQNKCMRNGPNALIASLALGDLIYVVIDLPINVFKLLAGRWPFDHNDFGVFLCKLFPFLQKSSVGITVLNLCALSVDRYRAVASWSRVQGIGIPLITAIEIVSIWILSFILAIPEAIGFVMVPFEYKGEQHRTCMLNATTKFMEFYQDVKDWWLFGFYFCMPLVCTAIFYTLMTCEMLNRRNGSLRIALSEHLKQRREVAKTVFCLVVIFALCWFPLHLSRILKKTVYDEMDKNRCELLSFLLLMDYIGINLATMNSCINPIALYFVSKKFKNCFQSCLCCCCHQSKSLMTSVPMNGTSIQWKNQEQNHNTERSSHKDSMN

[1] = target: T2, Endothelin receptor type B (Rattus norvegicus, UniProt P21451); assay: Concentration required to produce 50% inhibition of binding against ET B receptor obtained from rat brain membrane
T2 sequence (P21451 whole entry): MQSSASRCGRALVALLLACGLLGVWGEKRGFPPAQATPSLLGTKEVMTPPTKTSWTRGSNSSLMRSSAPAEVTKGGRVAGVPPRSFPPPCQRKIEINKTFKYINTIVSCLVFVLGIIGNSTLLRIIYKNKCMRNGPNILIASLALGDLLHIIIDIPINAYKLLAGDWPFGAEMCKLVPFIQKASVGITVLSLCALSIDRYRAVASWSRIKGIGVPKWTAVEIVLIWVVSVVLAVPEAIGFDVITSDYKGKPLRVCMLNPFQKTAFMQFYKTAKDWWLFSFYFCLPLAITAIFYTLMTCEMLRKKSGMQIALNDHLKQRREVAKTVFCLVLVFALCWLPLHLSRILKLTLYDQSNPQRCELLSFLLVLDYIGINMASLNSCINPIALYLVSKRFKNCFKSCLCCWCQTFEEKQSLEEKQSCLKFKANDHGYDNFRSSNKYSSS

Row | SMILES | pIC50 (Endothelin-1 receptor) | pIC50 [1]
1 | CCC(CC)C[C@@H](NC(=O)[C@@H](NC(=O)[C@H](CC(=O)O)NC(=O)[C@H](CC(C)C)NC(=O)[C@H](Cc1cnc[nH]1)NC(=O)[C@H](CS)NC(=O)[C@H](Cc1ccccc1)NC(=O)[C@H](Cc1ccc(O)cc1)NC(=O)[C@@H](NC(=O)[C@H](CS)NC(=O)[C@H](CCC(=O)O)NC(=O)[C@H](CCCCN)NC(=O)[C@H](CC(=O)O)NC(=O)[C@H](CCSC)NC(=O)[C@H](CC(C)C)NC(=O)[C@H](CO)NC(=O)[C@H](CO)NC(=O)[C@H](CS)NC(=O)[C@H](CO)NC(=O)[C@@H](N)CS)C(C)C)[C@H](C)CC)C(=O)N[C@@H](Cc1c[nH]c2ccccc12)C(=O)O [Endothelin-1 analogue] | 8.06 | 9.78
2 | CC[C@@H](C)[C@@H](NC(=O)[C@@H](NC(=O)[C@H](CC(=O)O)NC(=O)[C@H](CC(C)C)NC(=O)[C@H](Cc1cnc[nH]1)NC(=O)[C@H](CS)NC(=O)[C@H](Cc1ccccc1)NC(=O)[C@H](Cc1ccc(O)cc1)NC(=O)[C@@H](NC(=O)[C@H](CS)NC(=O)[C@H](CCC(=O)O)NC(=O)[C@H](CCCCN)NC(=O)[C@H](CC(=O)O)NC(=O)[C@H](CCSC)NC(=O)[C@H](CC(C)C)NC(=O)[C@H](CO)NC(=O)[C@H](CO)NC(=O)[C@H](CS)NC(=O)[C@H](CO)NC(=O)[C@@H](N)CS)C(C)C)[C@@H](C)CC)C(=O)N[C@@H](Cc1c[nH]c2ccccc12)C(=O)O [Endothelin-1 analogue] | 7.59 | 
3 | CC[C@@H](C)[C@H](NC(=O)[C@H](CC(=O)O)NC(=O)[C@H](CC(C)C)NC(=O)[C@H](Cc1cnc[nH]1)NC(=O)[C@H](CS)NC(=O)[C@H](Cc1ccccc1)NC(=O)[C@H](Cc1ccc(O)cc1)NC(=O)[C@@H](NC(=O)[C@H](CS)NC(=O)[C@H](CCC(=O)O)NC(=O)[C@H](CCCCN)NC(=O)[C@H](CC(=O)O)NC(=O)[C@H](CCSC)NC(=O)[C@H](CC(C)C)NC(=O)[C@H](CO)NC(=O)[C@H](CO)NC(=O)[C@H](CS)NC(=O)[C@H](CO)NC(=O)[C@@H](N)CS)C(C)C)C(=O)N[C@@H](C(=O)N[C@@H](Cc1c[nH]c2ccccc12)C(=O)O)C(C)C [Endothelin-1 analogue] | 9 | 9.05
4 | CC[C@@H](C)[C@H](NC(=O)[C@H](CC(=O)O)NC(=O)[C@H](CC(C)C)NC(=O)[C@H](Cc1cnc[nH]1)NC(=O)[C@H](CS)NC(=O)[C@H](Cc1ccccc1)NC(=O)[C@H](Cc1ccc(O)cc1)NC(=O)[C@@H](NC(=O)[C@H](CS)NC(=O)[C@H](CCC(=O)O)NC(=O)[C@H](CCCCN)NC(=O)[C@H](CC(=O)O)NC(=O)[C@H](CCSC)NC(=O)[C@H](CC(C)C)NC(=O)[C@H](CO)NC(=O)[C@H](CO)NC(=O)[C@H](CS)NC(=O)[C@H](CO)NC(=O)[C@@H](N)CS)C(C)C)C(=O)N[C@H](CC(C)C)C(=O)N[C@@H](Cc1c[nH]c2ccccc12)C(=O)O [Endothelin-1 analogue] | 7.97 | 9.94
5 | CC[C@@H](C)[C@H](NC(=O)[C@H](CC(=O)O)NC(=O)[C@H](CC(C)C)NC(=O)[C@H](Cc1cnc[nH]1)NC(=O)[C@H](CS)NC(=O)[C@H](Cc1ccccc1)NC(=O)[C@H](Cc1ccc(O)cc1)NC(=O)[C@@H](NC(=O)[C@H](CS)NC(=O)[C@H](CCC(=O)O)NC(=O)[C@H](CCCCN)NC(=O)[C@H](CC(=O)O)NC(=O)[C@H](CCSC)NC(=O)[C@H](CC(C)C)NC(=O)[C@H](CO)NC(=O)[C@H](CO)NC(=O)[C@H](CS)NC(=O)[C@H](CO)NC(=O)[C@@H](N)CS)C(C)C)C(=O)N[C@H](CCC(N)=O)C(=O)N[C@@H](Cc1c[nH]c2ccccc12)C(=O)O [Endothelin-1 analogue] | 5.27 | 5.59
6 | CC[C@@H](C)[C@H](NC(=O)[C@H](CC(=O)O)NC(=O)[C@H](CC(C)C)NC(=O)[C@H](Cc1cnc[nH]1)NC(=O)[C@H](CS)NC(=O)[C@H](Cc1ccccc1)NC(=O)[C@H](Cc1ccc(O)cc1)NC(=O)[C@@H](NC(=O)[C@H](CS)NC(=O)[C@H](CCC(=O)O)NC(=O)[C@H](CCCCN)NC(=O)[C@H](CC(=O)O)NC(=O)[C@H](CCSC)NC(=O)[C@H](CC(C)C)NC(=O)[C@H](CO)NC(=O)[C@H](CO)NC(=O)[C@H](CS)NC(=O)[C@H](CO)NC(=O)[C@@H](N)CS)C(C)C)C(=O)N[C@H](Cc1cnc[nH]1)C(=O)N[C@@H](Cc1c[nH]c2ccccc12)C(=O)O [Endothelin-1 analogue] | 6.13 | 7.55
7 | CC[C@H](C)[C@H](NC(=O)[C@H](CC(=O)O)NC(=O)[C@H](CC(C)C)NC(=O)[C@H](Cc1cnc[nH]1)NC(=O)[C@H](CS)NC(=O)[C@H](Cc1ccccc1)NC(=O)[C@H](Cc1ccc(O)cc1)NC(=O)[C@@H](NC(=O)[C@H](CS)NC(=O)[C@H](CCC(=O)O)NC(=O)[C@H](CCCCN)NC(=O)[C@H](CC(=O)O)NC(=O)[C@H](CCSC)NC(=O)[C@H](CC(C)C)NC(=O)[C@H](CO)NC(=O)[C@H](CO)NC(=O)[C@H](CS)NC(=O)[C@H](CO)NC(=O)[C@@H](N)CS)C(C)C)C(=O)N[C@@H](C(=O)N[C@@H](Cc1c[nH]c2ccccc12)C(=O)O)C1CCCCC1 [Endothelin-1 analogue] | 7.04 | 9.59
8 | CC[C@H](C)[C@H](NC(=O)[C@H](CC(=O)O)NC(=O)[C@H](CC(C)C)NC(=O)[C@H](Cc1cnc[nH]1)NC(=O)[C@H](CS)NC(=O)[C@H](Cc1ccccc1)NC(=O)[C@H](Cc1ccc(O)cc1)NC(=O)[C@@H](NC(=O)[C@H](CS)NC(=O)[C@H](CCC(=O)O)NC(=O)[C@H](CCCCN)NC(=O)[C@H](CC(=O)O)NC(=O)[C@H](CCSC)NC(=O)[C@H](CC(C)C)NC(=O)[C@H](CO)NC(=O)[C@H](CO)NC(=O)[C@H](CS)NC(=O)[C@H](CO)NC(=O)[C@@H](N)CS)C(C)C)C(=O)N[C@@H](C(=O)N[C@@H](Cc1c[nH]c2ccccc12)C(=O)O)c1ccccc1 [Endothelin-1 analogue] | 6.85 | 8.6
9 | CC[C@H](C)[C@H](NC(=O)[C@H](CC(=O)O)NC(=O)[C@H](CC(C)C)NC(=O)[C@H](Cc1cnc[nH]1)NC(=O)[C@H](CS)NC(=O)[C@H](Cc1ccccc1)NC(=O)[C@H](Cc1ccc(O)cc1)NC(=O)[C@@H](NC(=O)[C@H](CS)NC(=O)[C@H](CCC(=O)O)NC(=O)[C@H](CCCCN)NC(=O)[C@H](CC(=O)O)NC(=O)[C@H](CCSC)NC(=O)[C@H](CC(C)C)NC(=O)[C@H](CO)NC(=O)[C@H](CO)NC(=O)[C@H](CS)NC(=O)[C@H](CO)NC(=O)[C@@H](N)CS)C(C)C)C(=O)N[C@@H](Cc1c[nH]c2ccccc12)C(=O)N[C@@H](Cc1c[nH]c2ccccc12)C(=O)O [Endothelin-1 analogue] | 6.71 | 9.77
10 | CC[C@H](C)[C@H](NC(=O)[C@H](CC(=O)O)NC(=O)[C@H](CC(C)C)NC(=O)[C@H](Cc1cnc[nH]1)NC(=O)[C@H](CS)NC(=O)[C@H](Cc1ccccc1)NC(=O)[C@H](Cc1ccc(O)cc1)NC(=O)[C@@H](NC(=O)[C@H](CS)NC(=O)[C@H](CCC(=O)O)NC(=O)[C@H](CCCCN)NC(=O)[C@H](CC(=O)O)NC(=O)[C@H](CCSC)NC(=O)[C@H](CC(C)C)NC(=O)[C@H](CO)NC(=O)[C@H](CO)NC(=O)[C@H](CS)NC(=O)[C@H](CO)NC(=O)[C@@H](N)CS)C(C)C)C(=O)N[C@H](C(=O)N[C@@H](Cc1c[nH]c2ccccc12)C(=O)O)[C@@H](C)CC [Endothelin-1 analogue] | 9.93 | 
11 | CC[C@H](C)[C@H](NC(=O)[C@H](CC(=O)O)NC(=O)[C@H](CC(C)C)NC(=O)[C@H](Cc1cnc[nH]1)NC(=O)[C@H](CS)NC(=O)[C@H](Cc1ccccc1)NC(=O)[C@H](Cc1ccc(O)cc1)NC(=O)[C@@H](NC(=O)[C@H](CS)NC(=O)[C@H](CCC(=O)O)NC(=O)[C@H](CCCCN)NC(=O)[C@H](CC(=O)O)NC(=O)[C@H](CCSC)NC(=O)[C@H](CC(C)C)NC(=O)[C@H](CO)NC(=O)[C@H](CO)NC(=O)[C@H](CS)NC(=O)[C@H](CO)NC(=O)[C@@H](N)CS)C(C)C)C(=O)N[C@H](C(=O)N[C@@H](Cc1c[nH]c2ccccc12)C(=O)O)c1ccccc1 [Endothelin-1 analogue] | 8.89 | 9.76
12 | CC[C@H](C)[C@H](NC(=O)[C@H](CC(=O)O)NC(=O)[C@H](CC(C)C)NC(=O)[C@H](Cc1cnc[nH]1)NC(=O)[C@H](CS)NC(=O)[C@H](Cc1ccccc1)NC(=O)[C@H](Cc1ccc(O)cc1)NC(=O)[C@@H](NC(=O)[C@H](CS)NC(=O)[C@H](CCC(=O)O)NC(=O)[C@H](CCCCN)NC(=O)[C@H](CC(=O)O)NC(=O)[C@H](CCSC)NC(=O)[C@H](CC(C)C)NC(=O)[C@H](CO)NC(=O)[C@H](CO)NC(=O)[C@H](CS)NC(=O)[C@H](CO)NC(=O)[C@@H](N)CS)C(C)C)C(=O)N[C@H](C)C(=O)N[C@@H](Cc1c[nH]c2ccccc12)C(=O)O [Endothelin-1 analogue] | 5.77 | 7.96
